Assay results taken from patent US4364944A, “Cephalosporins” (Dr. Karl Thomae Gesellschaft mit beschrankter Haftung, priority 1980, dated 1982).
≈ marks a conversion by molar mass, not a printed value.

Experiments:
E. coli ATCC 11775 [1] = assay: In vivo activity against experimental E. coli infection in mice; set-up: species or system E. coli in female mice of the NMRI strain; details: Escherichia coli, ATCC11775, sc, 168 h; s.c. administration once, 1 hour after i.p. infection; dose at which 50% of the animals survive; 7 days
Method: A few compounds of the invention and cefuroxim were tested in vivo against experimental infections in mice. E. coli ATCC 11775 was used as the pathogenic bacteria. An intraperitoneal infection was induced with 0.2 ml of a 5% mucin suspension of the bacteria. This corresponds to approximately 1.4×10^6 E. coli bacteria per mouse. Female mice of the NMRI strain were divided into groups of 10 animals, of which 2 groups remained untreated while the remaining groups were treated with various doses of the particular cephalosporin according to the invention for the purpose of determining the ED50 (dose at which 50% of the animals survive). The treatment was applied once (1 hour after infection). The observation period was 7 days. The results of these tests are shown in Table III below, where the numbering of the compounds again corresponds to that used in Table I.

K. pneum. 1082 E = assay: Minimum inhibiting concentration, serial dilution test in the microtiter system; format: cell-based; details: Klebsiella pneumoniae, 37° C., 18 to 20 hours
Method: (§1) These tests were performed using the serial dilution test in the microtiter system. The effect of the test compound on bacteriostasis was tested in a liquid medium at the following concentrations: 128, 64, 32, 16, 8, 4, 2, 1, 0.5, 0.25, 0.12 and 0.06 μgm/ml. The nutrient medium consisted of 10 gm of peptone, 8 gm of meat extract oxoid, 3 gm of sodium chloride, and 2 gm of sec. sodium phosphate diluted with distilled water to […] (pH 7.2-7.4). The age of the primary cultures was approximately 20 hours. The standardization of the bacteria suspension was effected using a photometer according to the method of Eppendorf (test tube .phi. 14 mm, filter 546 nm), using for comparison a barium sulfate suspension formed by the addition of 3.0 ml of 1% barium chloride solution to 97 ml of 1% sulfuric acid. After standardization, the test microorganisms were further diluted to a concentration of 1:1500, using a sodium chloride solution.
(§2) 16 mgm of the particular test compound were put into a 10 ml measuring flask, and the flask was subsequently filled to the mark with the solvent. The further dilution series was standardized with distilled water or the appropriate solvent.
(§3) The depressions of the microtiter plates were filled with 0.2 ml of nutrient medium. 0.01 ml of the appropriate test compound solution was then added, followed by inoculation with 0.1 ml (1 drop) of the standardized bacteria suspension. The bacteria were incubated at 37° C. for 18 to 20 hours. Control tests using only the solvent were carried out simultaneously.
(§4) The readings were made macroscopically to determine the minimum inhibitory concentration (the lowest still bacteriostatically effective concentration).

E. coli R + TEM = assay: as above; format: cell-based; details: Escherichia coli, read-out: Minimum inhibiting concentration (MIC)
Method: as §1, §2, §3, §4
(§5) Staphylococcus aureus SG 511, Escherichia coli ATCC 11 775, Pseudomonas aeruginosa hamburgensis and Pseudomonas aeruginosa BC 19, Serratia marcescens ATCC 13 800, Klebsiella pneumoniae ATCC 10031 and BC 6, Proteus mirabilis BC 17, Proteus rettgeri BC 7, Enterobacter Cloaceae ATCC 13047 and E. coli R+TEM (β-lactamase carrier).

Staph. aureus SG 511 = assay: as above; format: cell-based; details: Staphylococcus aureus, SG511, 37° C., 18 to 20 hours
Method: as §1, §2, §3, §4, §5

Kl. pneum. ATCC 10031 = assay: as above; format: cell-based; details: Klebsiella pneumoniae, ATCC10031, 37° C., 18 to 20 hours
Method: as §1, §2, §3, §4, §5

[2] = test system: Serr. marcesc. ATCC 13880; assay: as above; format: cell-based; details: Serratia marcescens, ATCC13880, 37° C., 18 to 20 hours
Method: as §1, §2, §3, §4, §5

Kl. pneum. BC 6 = assay: as above; format: cell-based; details: Klebsiella pneumoniae, 37° C., 18 to 20 hours
Method: as §1, §2, §3, §4, §5

E. coli ATCC 11775 [3] = assay: as above; format: cell-based; details: Escherichia coli, ATCC11775, 37° C., 18 to 20 hours
Method: as §1, §2, §3, §4, §5

Pseud. BC 19 = assay: as above; format: cell-based; details: Pseudomonas aeruginosa, 37° C., 18 to 20 hours
Method: as §1, §2, §3, §4, §5

Prot. mirab. BC 17 = assay: as above; format: cell-based; details: Proteus mirabilis, 37° C., 18 to 20 hours
Method: as §1, §2, §3, §4, §5

Ent. cloac. ATCC 13047 = assay: as above; format: cell-based, Enterobacter Cloaceae; details: Enterobacter, ATCC13047, 37° C., 18 to 20 hours
Method: as §1, §2, §3, §4, §5

Prot. rettg. = assay: as above; format: cell-based, Proteus rettgeri; details: Providencia rettgeri, 37° C., 18 to 20 hours
Method: as §1, §2, §3, §4, §5

Pseud. Hbg. = assay: as above; format: cell-based, Pseudomonas aeruginosa hamburgensis; details: Pseudomonas aeruginosa, 37° C., 18 to 20 hours
Method: as §1, §2, §3, §4, §5

Structure (SMILES)	ED50 (E. coli ATCC 11775 [1])	MIC (K. pneum. 1082 E)	MIC (E. coli R + TEM)	MIC (Staph. aureus SG 511)	MIC (Kl. pneum. ATCC 10031)	MIC [2]	MIC (Kl. pneum. BC 6)	MIC (E. coli ATCC 11775 [3])	MIC (Pseud. BC 19)	MIC (Prot. mirab. BC 17)	MIC (Ent. cloac. ATCC 13047)	MIC (Prot. rettg.)	MIC (Pseud. Hbg.)
Cn1nnnc1SCC1=C(C(=O)O)N2C(=O)[C@@H](NC(=O)C(NC(=O)Nc3cnc(NCc4ccc(S(N)(=O)=O)s4)nc3O)c3csc(N)n3)[C@H]2SC1 (some centres unmarked) [Compound 4]	< 0.5 mg/kg	8 µg/mL (≈ 9.87 µM)	0.25 µg/mL (≈ 0.308 µM)	1 µg/mL (≈ 1.23 µM)	0.03 µg/mL (≈ 0.037 µM)	0.06 µg/mL (≈ 0.074 µM)	0.03 µg/mL (≈ 0.037 µM)	0.01 µg/mL (≈ 0.0123 µM)	8 µg/mL (≈ 9.87 µM)	0.01 µg/mL (≈ 0.0123 µM)	0.06 µg/mL (≈ 0.074 µM)	0.01 µg/mL (≈ 0.0123 µM)	16 µg/mL (≈ 19.7 µM)
CO[C@@]1(NC(=O)C(NC(=O)Nc2cnc(NCc3ccco3)nc2O)c2ccccc2)C(=O)N2C(C(=O)O)=C(CSc3nnnn3C)CS[C@@H]21 (some centres unmarked) [Compound 14]	2.5 to 5 mg/kg	0.25 µg/mL (≈ 0.345 µM)	0.25 µg/mL (≈ 0.345 µM)	0.5 µg/mL (≈ 0.691 µM)	0.25 µg/mL (≈ 0.345 µM)	0.25 µg/mL (≈ 0.345 µM)	0.25 µg/mL (≈ 0.345 µM)	0.12 µg/mL (≈ 0.166 µM)	8 µg/mL (≈ 11.1 µM)	0.12 µg/mL (≈ 0.166 µM)	1 µg/mL (≈ 1.38 µM)	1 µg/mL (≈ 1.38 µM)	8 µg/mL (≈ 11.1 µM)
Nc1nc(C(NC(=O)Nc2cnc(NCc3ccc(S(N)(=O)=O)s3)nc2O)C(=O)N[C@@H]2C(=O)N3C(C(=O)O)=C(CSc4nnnn4CCO)CS[C@H]23)cs1 (some centres unmarked) [Compound 6]	< 0.5 mg/kg	16 µg/mL (≈ 19 µM)	0.5 µg/mL (≈ 0.595 µM)	1 µg/mL (≈ 1.19 µM)	0.06 µg/mL (≈ 0.0713 µM)	0.06 µg/mL (≈ 0.0713 µM)	0.03 µg/mL (≈ 0.0357 µM)	< 0.03 µg/mL	8 µg/mL (≈ 9.51 µM)	0.03 µg/mL (≈ 0.0357 µM)	0.06 µg/mL (≈ 0.0713 µM)	0.06 µg/mL (≈ 0.0713 µM)	16 µg/mL (≈ 19 µM)
CO[C@@]1(NC(=O)C(NC(=O)Nc2cnc(NCc3ccc(S(N)(=O)=O)s3)nc2O)c2ccccc2)C(=O)N2C(C(=O)O)=C(CSc3nnnn3C)CS[C@@H]21 (some centres unmarked) [Compound 11]	~5 mg/kg	0.25 µg/mL (≈ 0.305 µM)	0.25 µg/mL (≈ 0.305 µM)	1 µg/mL (≈ 1.22 µM)	0.25 µg/mL (≈ 0.305 µM)	0.25 µg/mL (≈ 0.305 µM)	0.25 µg/mL (≈ 0.305 µM)	0.12 µg/mL (≈ 0.147 µM)	8 µg/mL (≈ 9.77 µM)	0.06 µg/mL (≈ 0.0733 µM)	0.5 µg/mL (≈ 0.611 µM)	0.5 µg/mL (≈ 0.611 µM)	16 µg/mL (≈ 19.5 µM)
CO/N=C(\C(=O)N[C@@H]1C(=O)N2C(C(=O)O)=C(COC(N)=O)CS[C@H]12)c1ccco1 [Cefuroxim, reference compound]	> 100 mg/kg	–	4 µg/mL (≈ 9.43 µM)	1 µg/mL (≈ 2.36 µM)	2 µg/mL (≈ 4.71 µM)	8 µg/mL (≈ 18.9 µM)	4 µg/mL (≈ 9.43 µM)	8 µg/mL (≈ 18.9 µM)	> 128 µg/mL	0.5 µg/mL (≈ 1.18 µM)	32 µg/mL (≈ 75.4 µM)	2 µg/mL (≈ 4.71 µM)	> 128 µg/mL
Cn1nnnc1SCC1=C(C(=O)O)N2C(=O)[C@@H](NC(=O)C(NC(=O)Nc3cnc(NCc4ccco4)nc3O)c3csc(N)n3)[C@H]2SC1 (some centres unmarked) [Compound 1]	0.8 mg/kg	16 µg/mL (≈ 22.4 µM)	0.5 µg/mL (≈ 0.699 µM)	1 µg/mL (≈ 1.4 µM)	0.06 µg/mL (≈ 0.0838 µM)	0.06 µg/mL (≈ 0.0838 µM)	0.03 µg/mL (≈ 0.0419 µM)	0.03 µg/mL (≈ 0.0419 µM)	16 µg/mL (≈ 22.4 µM)	0.01 µg/mL (≈ 0.014 µM)	0.25 µg/mL (≈ 0.349 µM)	0.06 µg/mL (≈ 0.0838 µM)	16 µg/mL (≈ 22.4 µM)
